Experimental data as given in US6776971B1, “Visible light pH change for activating polymers and other pH dependent reactants” (The United States of America as represented by the …, priority 1998, dated 2004).
Blank lines part the entries; values can stand above or below the molecule they belong to.

How the values were obtained:
[1] = Excited-state / phosphorescence lifetimes of candidate jump molecules; format: physicochemical; conditions: for Lifetimes (mS): triplet, prolonged excited state; for τp (excited-state lifetime, p for phosphorescence): carbon acids, obs = observed
Source text: During the course of scientific research, the inventor constructed kinetic equations for the 3-level system of FIG. 1. Referring again to FIG. 1, an ideal “jump molecule” will be excited from ground state energy level (S0) to first excited singlet state energy level (S1), and return to the ground state via triplet state energy level (T1). The radiationless transition and radiative decay via phosphorescence will function as a “sink” for the molecules and because of their combined long lifetime, a prolonged molecule excited state will exist. The pH change produced by this excitation will last for the life of this excited state.
For example, the phenones are considered undesirable because the lifetimes of the protonated and non-protonated forms are very different, providing a rapid excited state deactivation channel. An example of this is benzophenone, having an unprotonated lifetime of 100 milliseconds and a protonated lifetime of 62 nanoseconds.
(§1) In Table 1, characteristics of the carbon acids are described. […] In this table, “obs” means “observed” and “c” means “calculated”.

[2] = Acidity constants (pK) in ground, first excited singlet and triplet states; format: physicochemical; conditions: for pK (S0): ground state
Source text: The term pK is a shorthand indicating the strength of an acid (pKa) and is defined as the −log10 K in which K is the characteristic equilibrium constant K, represented by:
where [H^+] is the hydrogen ion concentration and [B] is the concentration of the conjugate base. When the amount of one of these constituents is varied, the others will adjust to keep K constant.
as §1
By utilizing visible light, the protonated form BH^+ of anthracene is disassociated into its base (B) and hydrogen ion (H^+) constituents to prompt a pH change from […]. […] The calculation in Table 2 is based on a pK(S0) value for anthracene found in Mackor. E. L., Hofstra, A., and Van Der Waals, J. H., 1958, in an article entitled “The Basicity of Aromatic Hydrocarbons”, Trans. Faraday Soc., vol. 54, 66.

[3] = Excitation wavelength and light absorbance; format: physicochemical; conditions: for Log (eps) / epsilon: 413.1 nm
Source text: In Table 1, characteristics of the carbon acids are described. […] In this table, “obs” means “observed” and “c” means “calculated”. Of these, the PAC, anthracene, fits well with certain well established polymers. Referring to FIG. 4, the protonated form of this molecule is confirmed. […] The peak at 424 nm is the only peak within the visible region of the spectrum which decreases with time, and is the signature of anthracene's protonated form. It is this peak that is used to activate the anthracene polymeric actuator with visible light.

[4] = pK(S0), value from Mackor et al 1958; cited from earlier work
[5] = cited from earlier work

Molecule: O=C(c1ccccc1)c1ccccc1 [benzophenone]
protonated lifetime [1]: 62 nanoseconds
unprotonated lifetime [1]: 100 milliseconds

Molecule: O=S(=O)(O)c1ccc2cc(O)ccc2c1 [2-naphthol-6-sulfonate]
excited-state pKa value ([5]; S1 state, UV laser, from measured rate constants): 1.9
ground-state pKa value [5]: 9.1
change in pKa ([5]; ground vs excited state): 7 unit

Molecule: N#CC1c2ccccc2-c2ccccc21 [9-cyanflourene]
pK (S0) [2]: 11.4
τp (excited-state lifetime, p for phosphorescence) [1]: obs
λ00 (excitation wavelength necessary to initiate a pH change) [3]: 300 nm

Further lines, with some results ahead:

pK's Singlet [2]: 13.6
pK's Triplet ([2]; pK(T1)): 10.3
Lifetimes nS ([1]; singlet excited state): 10.0 nS
Lifetimes (mS) [1]: (10.0) mS
Lifetimes (mS) ([1]; listed as anthracene): 10 mS
Log (eps) [3]: 0.04
epsilon [3]: 1
Molecule: c1ccc2cc3ccccc3cc2c1 [Anthracene, anthracene]
pK's Ground [4]: 3.8

pK (S0) [2]: 23.04
τp (excited-state lifetime, p for phosphorescence) [1]: 0.35 ms
λ00 (excitation wavelength necessary to initiate a pH change) [3]: 300 nm
Molecule: c1ccc2c(c1)Cc1ccccc1-2 [fluorene]

pK (S0) [2]: 18.6
τp (excited-state lifetime, p for phosphorescence) [1]: obs
λ00 (excitation wavelength necessary to initiate a pH change) [3]: 305 nm
Molecule: c1ccc(C2c3ccccc3-c3ccccc32)cc1 [9-phenylflourene]

Log (eps) [3]: 4.38
epsilon [3]: 23988
absorbance peak within the visible region ([3]; zero-time spectrum, FIG. 4): 424 nm
Molecule: protonated anthracene [BH+]
